Experimental findings from patent US10829483B2, “Thiophene, manufacturing method thereof, and pharmaceutical application of same” (CSTONE PHARMACEUTICAL (SUZHOU) CO., LTD., priority 2016, dated 2020) are described below.

In this test the target is URAT-1 (uric acid transporter) (Homo sapiens (Human), UniProt Q96S37). Nature of the test: Inhibition of 14C uric acid transport by HEK293 cell line stably transfected with the URAT-1 gene. Type of test: cell-based. The conditions noted are these: URAT-1 (HEK293) cells; 14C-labelled uric acid 50 um, 10 min at 37° C.; read-out: IC50 (inhibition against URAT-1). As for the experimental part: Determination of the IC50 value of the inhibitory activity of the compound against uric acid reabsorption by the HEK293 cell line stably transfected with the URAT-1 (uric acid transporter) gene.
URAT-1 (uric acid transporter), sequence (Q96S37 whole entry): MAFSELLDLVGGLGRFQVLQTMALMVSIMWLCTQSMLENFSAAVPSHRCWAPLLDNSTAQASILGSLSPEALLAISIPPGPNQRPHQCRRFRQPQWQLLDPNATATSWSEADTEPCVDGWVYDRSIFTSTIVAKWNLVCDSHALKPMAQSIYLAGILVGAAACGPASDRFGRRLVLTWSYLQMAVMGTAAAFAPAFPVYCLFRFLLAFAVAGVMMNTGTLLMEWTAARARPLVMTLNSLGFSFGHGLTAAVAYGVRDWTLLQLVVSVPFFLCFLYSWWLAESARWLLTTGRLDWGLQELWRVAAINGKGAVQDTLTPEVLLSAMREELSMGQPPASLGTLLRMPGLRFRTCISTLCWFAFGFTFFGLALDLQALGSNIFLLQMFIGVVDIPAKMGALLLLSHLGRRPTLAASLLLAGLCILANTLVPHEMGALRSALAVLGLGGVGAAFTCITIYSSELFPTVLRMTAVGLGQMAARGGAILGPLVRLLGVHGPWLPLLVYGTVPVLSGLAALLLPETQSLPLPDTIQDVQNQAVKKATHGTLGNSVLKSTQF
URAT-1 (HEK293) cell line: the HEK293 cell line stably transfected with the URAT-1 gene
cell culture medium: DMEM culture medium added 10% fetal bovine serum (FBS), 1% sodium pyruvate and […] G418.
Uric acid solution labeled by ^14C.
1) the supernatant of cell culture was aspirated, and cells was washed with 10 mL PBS.
2) preheated trypsin was added into the cell culture flask, and the cell culture flask was rotated to make trypsin covering onto the bottom of cell culture flask equably.
3) the cells were suspended with 10-15 mL of culture medium in each T150 flask, took 0.1 mL of cell suspension and diluted it with two volumes of trypan blue solution to count the cells.
4) cells were diluted to 2.5×10^5/mL with the culture medium, and the diluted cells were added into a rat tail collagen-coated 24-well plate (800 uL/well, 2×10^5 cells/well). The plate was incubated overnight at 37° C. in a 5% CO2 incubator.
1) cells were seeded into 24-well plate, and supernatant was discarded after 16-18 h. The cells were washed twice using 600 ul HBSS buffer.
2) HBSS buffer was removed and 180 ul of HBSS buffer was added into each well again.
1) compounds were dissolved into 100% DMSO, and diluted into 6 concentration points by 3-fold dilution, or into 2 concentration points by 10-fold dilution, and the highest starting concentration was 50 mM.
2) 5 ul DMSO solution in step 1) was transferred into 120 ul of HBSS buffer to make a 25-fold dilution.
3) 10 ul diluted solution in step 2) was added into 24-well plate, and the plate was incubated for 15 min at 37° C. in a 5% CO2 incubator. The final concentration of DMSO is 0.2%. The control well contained 0.2% DMSO without compound.
^14C-labelled uric acid was diluted and added into plate, and the final concentration is 50 um. The plate was incubated for 10 min at 37° C. in a 5% CO2 incubator. After supernatant was discarded, cells were washed with HBSS buffer twice. Cells was lysed with 0.1M NaOH. And then cell lysis solution was collected into liquid scintillation tube and added with liquid scintillation solution. The signal was read by liquid scintillation counter Tri-Carb. e) data analysis URAT-1 inhibition by the treatment of the compounds was analyzed by calculating the percentage of inhibition. Non-linear fitting analysis of percent inhibition (inh %) data using GraphPad Prism software to generate the IC50 value.
As to `CC(C)(Sc1nnc(Br)n1-c1sc(C2CC2)c2c1CCC2)C(=O)O` [WX062], the IC50 is less than 2 µM.

In the case of `CC1(C)Cc2c(C3CC3)sc(-n3c(Br)nnc3SC(C)(C)C(=O)O)c2C1` [WX065], the IC50 was less than 2 µM.

On to `Cc1cc(-n2c(Br)nnc2SC2(C(=O)O)CCCC2)sc1C1CC1` [WX092], for which the IC50 was less than 2 µM.

`CCOC(=O)C(C)Sc1nncn1-c1cc(Br)c(C2CC2)s1` (stereo not shown) [WX074]: the IC50 is greater than 20 µM.

On to `COc1ccc(-c2sc(-n3c(Br)nnc3SC(C)C(=O)O)c3c2CCCC3)cc1` (stereo not shown) [WX016], for which the concentration for half-maximal inhibition (IC50) fell in the range of 2 to 20 µM.

On to `Cc1cc(-n2c(Br)nnc2SCC(=O)O)sc1C1CC1` [WX078], for which the half-inhibitory concentration (IC50) is greater than 20 µM.

In the case of `COc1ccc(-c2sc(-n3cnnc3SCC(=O)O)c3c2CCC3)cc1` [WX049], the IC50 is greater than 20 µM.

Regarding `CC(C)c1nnc(SCC(=O)O)n1-c1sc(C2CC2)c2c1CCC2` [WX101], the half-inhibitory concentration (IC50) was greater than 20 µM.

Take `Cc1cc(-n2c(Br)nnc2SCC(=O)O)sc1-c1ccc(C(C)(C)C)cc1` [WX085]: the IC50 was greater than 20 µM.

On to `CCC(C)(Sc1nnc(Br)n1-c1sc(C2CC2)c2c1CCC2)C(=O)O` (stereo not shown) [WX063], for which the 50% inhibitory concentration (IC50) is less than 2 µM.

In the case of `Cc1cc(-n2c(Br)nnc2SC(C)C(=O)O)sc1C1CC1` (stereo not shown) [WX094], the IC50 is less than 2 µM.

Consider `CC(C)(Sc1nnc(Br)n1-c1sc(-c2ccc(Cl)c(Cl)c2)c2c1CCCC2)C(=O)O` [WX011], for which the half-inhibitory concentration (IC50) was less than 2 µM.

For `Cn1cc(-c2sc(-n3c(Br)nnc3SCC(=O)O)c3c2CCC3)cn1` [WX047], the IC50 was greater than 20 µM.

Consider `Cc1cc(-n2c(Br)nnc2SCC(=O)O)sc1-c1ccc(C(F)(F)F)cc1` [WX084], for which the IC50 was greater than 20 µM.

On to `O=C(O)C(Sc1nnc(Br)n1-c1sc(C2CC2)c2c1CCC2)c1ccccc1` (stereo not shown) [WX064], for which the 50% inhibitory concentration (IC50) was 2 to 20 µM.

In the case of `CCOC(=O)C(C)(C)Sc1nncn1-c1sc(C(=O)NC(O)CCBr)c2c1CCCC2` (stereo not shown) [WX103], the IC50 is 2 to 20 µM.

For the molecule `O=C(O)CSc1nnc(Br)n1-c1sc(C2CC2)c2c1CCC2` [WX058], the IC50 was greater than 20 µM.

Regarding `CC(C)(Sc1nnc(Br)n1-c1sc(C2CC2)c2c1CCC2)C(=O)NO` [WX102], the half-inhibitory concentration (IC50) lay within 2 to 20 µM.

Consider `Cc1cc(-n2cnnc2SCC(=O)O)sc1-c1ccc(C(C)(C)C)cc1` [WX098], for which the IC50 was greater than 20 µM.

On to `COC(=O)C(C)(C)Sc1nncn1-c1cc(Br)c(-c2ccccc2)s1` [WX077], for which the IC50 was greater than 20 µM.

On to `CC(C)(Sc1nnc(Br)n1-c1sc(C2CC2)c2c1CCC(F)(F)C2)C(=O)O` [WX033], for which the IC50 was less than 2 µM.

For the molecule `O=C(O)C1(Sc2nnc(Br)n2-c2sc(C3CC3)c3c2CCCC3)CCC1` [WX029], the half-maximal inhibitory concentration (IC50) was less than 2 µM.

On to `O=C(O)CSc1nncn1-c1sc(-c2cc(F)cc(F)c2)c2c1CCCC2` [WX022], for which the 50% inhibitory concentration (IC50) is greater than 20 µM.

Take `COc1ccc(-c2sc(-n3c(Br)nnc3SC(C)(C)C(=O)O)cc2Cl)cc1` [WX071]: the 50% inhibitory concentration (IC50) was 2 to 20 µM.

On to `Cc1cc(-n2cnnc2SCC(=O)O)sc1-c1ccc(C(F)(F)F)cc1` [WX097], for which the IC50 is greater than 20 µM.

As to `CC(C)C(Sc1nnc(Br)n1-c1sc(C2CC2)c2c1CCCC2)C(=O)O` (stereo not shown) [WX028], the concentration for half-maximal inhibition (IC50) is less than 2 µM.

On to `O=C(O)CSc1nncn1-c1sc(-c2cccc(Cl)c2)c2c1CCC2` [WX052], for which the half-inhibitory concentration (IC50) was greater than 20 µM.

Regarding `Cc1cc(-n2c(Br)nnc2SC(C)(C)C(=O)O)sc1-c1ccccc1` [WX081], the half-maximal inhibitory concentration (IC50) was in the range of 2 to 20 µM.

As to `O=C(O)C1(Sc2nnc(Br)n2-c2sc(C3CC3)c3c2CCC3)CCCC1` [WX060], the IC50 was less than 2 µM.

As to `Cc1cc(-n2c(Br)nnc2SC(C)C(=O)O)sc1-c1ccccc1` (stereo not shown) [WX080], the IC50 was in the range of 2 to 20 µM.

Take `CC1(C)CCc2c(C3CC3)sc(-n3c(Br)nnc3SC(C)(C)C(=O)O)c2C1` [WX034]: the half-maximal inhibitory concentration (IC50) was less than 2 µM.

`O=C(O)CSc1nncn1-c1sc(-c2ccc(F)c(F)c2)c2c1CCCC2` [WX021]: the 50% inhibitory concentration (IC50) was greater than 20 µM.

Regarding `CC(C)(C)c1ccc(-c2sc(-n3c(Br)nnc3SCC(=O)O)c3c2CCC3)cc1` [WX046], the half-maximal inhibitory concentration (IC50) was greater than 20 µM.

Consider `COc1ccc(-c2sc(-n3cnnc3SCC(=O)O)cc2C)cc1` [WX096], for which the concentration for half-maximal inhibition (IC50) was greater than 20 µM.

As to `CC(C)(Sc1nnc(Br)n1-c1cc(Cl)c(C2CC2)s1)C(=O)O` [WX067], the concentration for half-maximal inhibition (IC50) was less than 2 µM.

For the molecule `Cc1cc(-n2c(Br)nnc2SC(C)C(=O)O)sc1-c1ccc(Cl)cc1` (stereo not shown) [WX086], the half-inhibitory concentration (IC50) was in the range of 2 to 20 µM.

With `O=C(O)CSc1nnc(Br)n1-c1sc(-c2ccccc2)c2c1CCCC2` [WX003], the concentration for half-maximal inhibition (IC50) fell in the range of 2 to 20 µM.

As for `O=C(O)CSc1nnc(Br)n1-c1sc(-c2ccccc2)c2c1CCC2` [WX037], the IC50 is greater than 20 µM.

As for `CC(C)(Sc1nnc(Br)n1-c1sc(-c2ccc(F)c(F)c2)c2c1CCCC2)C(=O)O` [WX013], the IC50 was less than 2 µM.

As to `CC(C)(C)c1ccc(-c2sc(-n3cnnc3SCC(=O)O)c3c2CCC3)cc1` [WX048], the concentration for half-maximal inhibition (IC50) was greater than 20 µM.

For the molecule `CCOC(=O)C(C)(C)Sc1nnc(Br)n1-c1sc(C(=O)Nc2ccc(F)c(F)c2)c2c1CCCC2` [WX100], the IC50 is greater than 20 µM.

As for `O=C(O)CSc1nnc(Br)n1-c1sc(-c2ccc(Cl)c(Cl)c2)c2c1CCC2` [WX041], the half-maximal inhibitory concentration (IC50) is greater than 20 µM.

Regarding `Cc1cc(-n2c(Br)nnc2SC2(C(=O)O)CCC2)sc1C1CC1` [WX093], the half-maximal inhibitory concentration (IC50) is less than 2 µM.

Take `CC(C)(Sc1nnc(Br)n1-c1sc(-c2ccncn2)c2c1CCCC2)C(=O)O` [WX025]: the IC50 is greater than 20 µM.

For `O=C(O)CSc1nnc(Br)n1-c1sc(-c2ccc(Cl)cc2)c2c1CCC2` [WX040], the IC50 was greater than 20 µM.

Regarding `O=C(O)CSc1nnc(Br)n1-c1sc(-c2ccc(C(F)(F)F)cc2)c2c1CCC2` [WX044], the IC50 is greater than 20 µM.

Turning to `O=C(O)CSc1nncn1-c1sc(-c2ccc(Cl)cc2)c2c1CCC2` [WX054], the 50% inhibitory concentration (IC50) was greater than 20 µM.

As for `O=C(O)CSc1nnc(Br)n1-c1sc(-c2cccc(F)c2)c2c1CCCC2` [WX007], the IC50 was 2 to 20 µM.

In the case of `O=C(O)CSc1nncn1-c1sc(-c2cccc(F)c2)c2c1CCCC2` [WX020], the half-maximal inhibitory concentration (IC50) was greater than 20 µM.

For `Cc1cc(-n2c(Br)nnc2SC(C(=O)O)c2ccccc2)sc1C1CC1` (stereo not shown) [WX090], the 50% inhibitory concentration (IC50) lay in the range of 2 to 20 µM.

As for `O=C(O)CSc1nnc(Br)n1-c1sc(-c2cc(F)cc(F)c2)c2c1CCCC2` [WX009], the IC50 was less than 2 µM.

Regarding `O=C(O)CSc1nnc(Br)n1-c1sc(-c2cccc(F)c2)c2c1CCC2` [WX039], the IC50 is greater than 20 µM.

For the molecule `Cc1cc(-n2c(Br)nnc2SC(C(=O)O)C(C)C)sc1C1CC1` (stereo not shown) [WX088], the IC50 was less than 2 µM.

As for `CC(Sc1nnc(Br)n1-c1sc(-c2ccc(Cl)c(Cl)c2)c2c1CCCC2)C(=O)O` (stereo not shown) [WX018], the 50% inhibitory concentration (IC50) is 2 to 20 µM.

For the molecule `CNc1c(Br)cc(-c2sc(-n3cnnc3SC(C)(C)C(=O)O)c3c2CCCC3)cc1Br` [WX024], the IC50 was 2 to 20 µM.

Take `CC(Sc1nnc(Br)n1-c1sc(-c2ccc(S(C)(=O)=O)cc2)c2c1CCCC2)C(=O)O` (stereo not shown) [WX015]: the half-maximal inhibitory concentration (IC50) is greater than 20 µM.

For `O=C(O)CSc1nncn1-c1sc(C2CC2)c2c1CCCC2` [WX002], the IC50 was greater than 20 µM.

With `CCC(Sc1nnc(Br)n1-c1cc(C)c(C2CC2)s1)C(=O)O` (stereo not shown) [WX091], the IC50 was less than 2 µM.

Turning to `CC1(C)CCc2c(-n3c(Br)nnc3SC(C)(C)C(=O)O)sc(C3CC3)c2C1` [WX035], the half-inhibitory concentration (IC50) is less than 2 µM.

`CCOC(=O)C(C)(C)Sc1nncn1-c1cc(Br)c(C2CC2)s1` [WX076]: the IC50 was in the range of 2 to 20 µM.

`CC(C)(Sc1nnc(Br)n1-c1sc(C2CC2)c2c1CCCC2)C(=O)O` [WX027]: the IC50 was less than 2 µM.

One may read the IC50 as the point on the concentration scale where inhibition reaches its midpoint.
